pIC50: −log10 of the molar value.
What follows are compounds tested against T1, Rat NPY5 Receptor (Rattus norvegicus, UniProt Q63634) (assay: Rat NPY5 Receptor Binding Assay). Details: 10 μM, values marked *; read-out: rNPY5 percent inhibition at 10 μM.
T1 sequence (Q63634 1-445): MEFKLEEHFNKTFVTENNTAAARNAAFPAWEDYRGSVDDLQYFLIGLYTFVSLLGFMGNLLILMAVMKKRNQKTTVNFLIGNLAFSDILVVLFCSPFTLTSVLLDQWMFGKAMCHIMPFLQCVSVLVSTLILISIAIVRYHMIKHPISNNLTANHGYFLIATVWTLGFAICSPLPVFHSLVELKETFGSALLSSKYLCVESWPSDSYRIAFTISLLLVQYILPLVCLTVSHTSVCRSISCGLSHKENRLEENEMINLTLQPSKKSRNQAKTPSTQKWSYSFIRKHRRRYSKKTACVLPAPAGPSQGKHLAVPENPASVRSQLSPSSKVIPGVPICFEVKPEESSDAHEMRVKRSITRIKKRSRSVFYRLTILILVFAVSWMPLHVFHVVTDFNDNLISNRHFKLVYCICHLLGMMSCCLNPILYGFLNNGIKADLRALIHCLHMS

inhibition at 10 µM [%] | Compound
97 | O=C(CSc1ncc[nH]1)Nc1ccc(C(=O)c2ccccc2)cc1 [Compound 10, N-(4-Benzoyl-phenyl)-2-(1H-imidazol-2-ylsulfanyl)-acetamide]

Same assay, conditions: [125I]PYY; read-out: rNPY5 IC50

Compound | pIC50
Cc1nc(SCC(=O)Nc2ccc(C(=O)c3ccccc3)cc2)n[nH]1 [Compound 81, N-(4-Benzoyl-phenyl)-2-(5-methyl-1H-[1,2,4]triazol-3-ylsulfanyl)-acetamide] | < 6.00
O=C(CSc1ncnc2ccccc12)Nc1ccc(C(=O)c2ccccc2)cc1 [Compound 82, N-(4-Benzoyl-phenyl)-2-(quinazolin-4-ylsulfanyl)-acetamide] | < 6.00
Nc1cc(N)nc(SCC(=O)Nc2ccc(C(=O)c3ccccc3)cc2)n1 [Compound 84, N-(4-Benzoyl-phenyl)-2-(4,6-diamino-pyrimidin 2-ylsulfanyl)-acetamide] | < 6.00
O=C(CSc1ccnc2cc(C(F)(F)F)ccc12)Nc1ccc(C(=O)c2ccccc2)cc1 [Compound 88, N-(4-Benzoyl-phenyl)-2-(7-trifluoromethyl-quinolin-4-ylsulfanyl)-acetamide] | < 6.00
O=C(CSc1ccnc2cc(C(F)(F)F)ccc12)Nc1ccc(C2CCCCC2)cc1 [Compound 93, N-(4-Cyclohexyl-phenyl)-2-(7-trifluoromethyl-quinolin-4-ylsulfanyl)-acetamide] | < 6.00
O=C(CSc1ccc2ccccc2n1)Nc1ccc(C2CCCCC2)cc1 [Compound 95, N-(4-Cyclohexyl-phenyl)-2-(quinolin-2-ylsulfanyl)-acetamide] | < 6.00
O=C(CSc1ccc2ccccc2n1)Nc1ccc(C(=O)c2ccccc2)cc1 [Compound 100, N-(4-Benzoyl-phenyl)-2-(quinolin-2-ylsulanyl)-acetamide] | < 6.00
Nc1nc(S)nc(SCC(=O)Nc2ccc(C(=O)c3ccccc3)cc2)n1 [Compound 105, 2-(4-Amino-mercapto-[1,3,5]triazin-2-ylsulfanyl)-N-(4-benzoyl-phenyl)-acetamide] | < 6.00
CSc1ccc(SCC(=O)Nc2ccc(C(=O)c3ccccc3)cc2)cc1 [Compound 108, N-(4-Benzoyl-phenyl)-2-(4-methylsulfanyl-phenylsulfanyl)-acetamide] | < 6.00
CSc1sc(-c2nnc(SCC(=O)Nc3ccc(C4CCCCC4)cc3)n2C)c2c1C=CCC2 [Compound 112, N-(4-Cyclohexyl-phenyl)-2-[4-methyl-5-(3-methylsulfanyl-6,7-dihydro-benzo[C]thiophen-1-yl)-4H-[1,2,4]triazol-3-ylsulfanyl]-acetamide] | < 6.00
COc1ccc(-c2nnc(SCC(=O)Nc3ccc(C4CCCCC4)cc3)n2-c2cccc(C(F)(F)F)c2)cc1 [Compound 113, N-(4-Cyclohexyl-phenyl)-2-[5-(4-methoxy-phenyl)-4-(3-trifluoromethyl-phenyl)-4-[1,2,4]triazol-3-ylsulfanyl]-acetamide] | < 6.00
O=C(CSc1nnc(CSCCOc2ccc(Cl)cc2Cl)o1)Nc1ccc(C2CCCCC2)cc1 [Compound 117] | < 6.00
Cn1nnnc1SCC(=O)NCCc1cccs1 [Compound 126, 2-(1-Methyl-1H-tetrazol-5-ylsulfanyl)-N-(2-thiophen-2-yl-ethyl)-acetamide] | < 6.00
Cn1nnnc1SCC(=O)Nc1nc2ccccc2s1 [Compound 128, N-Benzothiazol-2-yl-2-(1-methyl-1H-tetrazol-5-ylsulfanyl)-acetamide] | < 6.00
Cn1nnnc1SCC(=O)N1CCCCCC1 [Compound 129, 1-Azepan-1-yl-2-(1-methyl-1H-tetrazol-5-ylsulfanyl)-ethanone] | < 6.00
O=C(COc1ccccc1)Nc1ccc(C2CCCCC2)cc1 [Compound 132, N-(4-Cyclohexyl-phenyl)-2-phenoxy-acetamide] | < 6.00
CN1CCC(OCC(=O)Nc2ccc(C(=O)c3ccccc3)cc2)CC1 [Compound 133, N-(4-Benzoyl-phenyl)-2-(1-methyl-piperidin-4-yloxy)-acetamide] | < 6.00
CN1CCC(OCC(=O)Nc2ccc(C3CCCCC3)cc2)CC1 [Compound 135, N-(4-Cyclohexyl-phenyl)-2-(1-methy-piperidin-4-yloxy)-acetamide] | < 6.00

Other lines, results leading:

pIC50 | Compound
< 6.00 | Nc1ccc(SCC(=O)Nc2ccc(C(=O)c3ccccc3)cc2)cc1 [Compound 103, 2-(4-Amino-phenylsulfanyl)-N-(4-benzoyl-phenyl)-acetamide]
< 6.00 | Cc1cnc(SCC(=O)Nc2ccc(C(=O)c3ccccc3)cc2)nc1S [Compound 104, N-(4-Benzoyl-phenyl)-2-(4-mercapt-5-methyl-pyrimidin-2-ylsulfanyl)-acetamide]
< 6.00 | COc1cccc(SCC(=O)Nc2ccc(C(=O)c3ccccc3)cc2)c1 [Compound 106, N-(4-Benzoyl-phenyl)-2-(3-methoxy-phenylsulfanyl)-acetamide]
< 6.00 | Cc1cc(C)c(CSCC(=O)Nc2ccc(C(=O)c3ccccc3)cc2)c(C)c1 [Compound 107, N-(4-Benzoyl-phenyl)-2-(2,4,6-trimethyl-benzylsulfanyl)-acetamide]
< 6.00 | O=C(CSc1n[nH]c(-c2ccco2)n1)Nc1ccc(C(=O)c2ccccc2)cc1 [Compound 118]
< 6.00 | Cn1nnnc1SCC(=O)Nc1cccc2c1Cc1ccccc1-2 [Compound 131, N-(9H-Fluoren-1-yl)-2-(1-methyl-1H-tetrazol-5-ylsulfanyl)-acetamide]
< 6.00 | O=C(COc1ccccc1)Nc1ccc(C(=O)c2ccccc2)cc1 [Compound 134, N-(4-Benzoyl-phenyl)-2-phenoxy-acetamide]

These compounds were tested against T2, Human NPY5 Receptor (Homo sapiens, UniProt Q15761) (assay: Human NPY5 Receptor Binding Assay). Details: [125I]PYY; read-out: hNPY5 IC50.
T2 sequence (Q15761 1-445): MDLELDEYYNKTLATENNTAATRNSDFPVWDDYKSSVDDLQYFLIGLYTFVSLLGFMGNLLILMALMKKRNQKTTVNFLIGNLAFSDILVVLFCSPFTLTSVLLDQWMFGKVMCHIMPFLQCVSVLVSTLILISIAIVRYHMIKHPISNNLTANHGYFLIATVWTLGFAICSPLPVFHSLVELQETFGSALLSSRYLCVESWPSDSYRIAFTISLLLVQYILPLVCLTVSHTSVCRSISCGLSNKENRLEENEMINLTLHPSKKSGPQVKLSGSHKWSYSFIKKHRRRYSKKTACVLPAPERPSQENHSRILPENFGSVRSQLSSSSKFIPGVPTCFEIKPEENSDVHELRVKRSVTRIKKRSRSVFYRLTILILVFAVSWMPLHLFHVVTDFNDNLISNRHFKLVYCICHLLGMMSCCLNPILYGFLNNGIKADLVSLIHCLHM
Protocol: Human and Rat NPY5 Receptor Binding Assays
Binding assays are performed on GF/C Millipore 96-well plates pretreated with 0.02% polyethylenimine. The binding buffer is 25 mM Tris, 120 mM NaCl, 5 mM KCl, 1.2 mM KH2 PO4, 2.5 mM CaCl2, 1.2 mM MgSO4, 0.1% BSA and 0.5 mg/ml bacitracin, pH 7.4. Samples consist of membrane protein, 75-100 pM [125I]PYY (porcine, NEN-DuPont) and drug dilution. Nonspecific binding is defined by 1 μM PYY. After a 2 hour incubation at room temperature with constant mixing, the samples are aspirated on a vacuum manifold, and rinsed with ice-cold binding buffer. The amount of radioactivity in each well is quantitated with either gamma counting or liquid scintillation. IC50 values, which correspond to 50% inhibition of specific binding, are determined with non-linear regression analysis.

Compound | pIC50
Cc1ccnc(SCC(=O)Nc2ccc(C3CCCCC3)cc2)n1 [Compound 29] | 6.72
Cc1nc(SCC(=O)Nc2ccc(C3CCCCC3)cc2)n[nH]1 [Compound 73, N-(4-Cyclohexyl-phenyl)-2-(5-methyl-1H-[1,2,4]triazol-3-ylsulfanyl)-acetamide] | < 6.00
O=C(CSc1ncnc2ccccc12)Nc1ccc(C2CCCCC2)cc1 [Compound 74, N-(4-Cyclohexyl-phenyl)-2-(quinazolin-4-ylsulfanyl)-acetamide] | < 6.00
Nc1nc(SCC(=O)Nc2ccc(C3CCCCC3)cc2)nc(O)c1N=O [Compound 78, 2-(4-Amino-6-hydroxy-5-nitroso-pyrimidin-2-ylsulfanyl)-N-(4-Cyclohexyl-phenyl)-acetamide] | < 6.00
Cc1cc(C)nc(SCC(=O)Nc2ccc(C3CCCCC3)cc2)n1 [Compound 80, N-(4-Cyclohexyl-phenyl)-2-(4,6-dimethyl-pyrimidin-2-ylsulfanyl)-acetamide] | < 6.00

More lines, now with the values ahead:

pIC50 | Compound
< 6.00 | O=C(CSc1nccc(C(F)(F)F)n1)Nc1ccc(C2CCCCC2)cc1 [Compound 75, N-(4-Cyclohexyl-phenyl)-2-(4-trifluoromethylpyrimidin-2-ylsulfanyl)-acetamide]
< 6.00 | Nc1cc(N)nc(SCC(=O)Nc2ccc(C3CCCCC3)cc2)n1 [Compound 76, N-(4-Cycyclohexyl-phenyl)-2-(4,6-diamino-pyrimidin-2-ylsulfanyl)-cetamide]
< 6.00 | CCOc1ccc2nc(SCC(=O)Nc3ccc(C4CCCCC4)cc3)sc2c1 [Compound 77, N-(4-Cyclohexyl-phenyl)-2-(6-ethoxy-benzothiazol-2-ylsulfanyl)-acetamide]
< 6.00 | O=C(CSc1nc2cc(Cl)ccc2s1)Nc1ccc(C2CCCCC2)cc1 [Compound 79]

Source: patent US6245817A, “NPY5 receptor antagonists and methods for using same” (Bayer Corporation, priority 1999, dated 2001)
